Assay: Elimination half life in Balb/C mouse at 10 mg/kg, po measured upto 48 hrs by LC-MS/MS analysis
Assay type: ADME, organism-based
Conditions: in vivo, read-out: beta t1/2 (converted)

half-life: 3.62 h
SMILES: Cc1ccc(-c2cn([C@H]3CC[C@@H](N)CC3)c3ncnc(N)c23)c(F)c1
